Counter-ions that a name gives are not always drawn. Bounds are passed on as bounds.

The target of assay [1] is T1, human Adenosine A3 receptor (Homo sapiens, UniProt P0DMS8).
T1 sequence (P0DMS8 1-318): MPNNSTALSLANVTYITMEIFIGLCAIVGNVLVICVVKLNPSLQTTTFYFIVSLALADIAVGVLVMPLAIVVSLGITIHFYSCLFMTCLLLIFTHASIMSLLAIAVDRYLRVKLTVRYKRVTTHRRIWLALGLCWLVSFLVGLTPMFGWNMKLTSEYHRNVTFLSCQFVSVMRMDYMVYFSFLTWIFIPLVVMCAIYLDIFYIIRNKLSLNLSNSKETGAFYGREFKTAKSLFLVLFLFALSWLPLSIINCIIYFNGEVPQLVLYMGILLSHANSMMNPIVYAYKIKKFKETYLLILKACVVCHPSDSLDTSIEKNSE
Description: Adenosine receptor TR-FRET binding assay (CA200645 displacement), A3.
Description: All FRET binding experiments were conducted at room temperature in white 384-well plates, in assay binding buffer containing 1×LabMed (Cisbio, France), 100 μg/mL saponin, 1% DMSO and 0.02% pluronic acid. Binding of the fluorescently labelled Adenosine receptor antagonist XAC (CA200645, FRET acceptor) to terbium-labelled A1, A2a, A2b and A3 adenosine receptors (FRET donors) was detected by time-resolved FRET due to the close proximity of the donor and acceptor in a binding event. To investigate the ability of unlabelled test compounds to bind to Adenosine A1, A2a, A2b and A3 receptors, dose response curves were constructed that determined the ability of a range of concentrations to inhibit the binding of 30 nM CA200645 to the A2b receptor and 100 nM CA200645 to the A1, A2a, and A3 receptor.
Serial dilution (1:3 dilutions) of test compounds in neat DMSO and transfer of a 400 nL sample of test compound into the assay plate was carried out using the Mosquito (TTP Labtech, UK). The compound samples were incubated for 2 hours at room temperature with a fixed concentration of CA200645 defined for each receptor (see above) and CHO cell membranes containing the human Adenosine A1 (0.5 μg/well), A2a (0.3 μg/well), A2b (1 μg/well) or A3 (1 μg/well) receptor in 40 μL of assay buffer. Total and non-specific binding of CA200645 was determined in the absence and presence of 10 μM XAC, respectively. Following 2 hours incubation, the level of CA200645 binding was detected on a Pherastar FSX (BMG Labtech, Germany) using standard TR-FRET settings. The terbium donor was excited with three laser flashes at a wavelength of 337 nm, and donor and acceptor emission was detected at 620 nm and 665 nm wavelengths, respectively. FRET ratios were obtained by multiplying the acceptor/donor ratio value by 10,000. Specific binding was determined by subtracting the non-specific binding FRET ratio from the total binding FRET ratio. Compound IC50 curves were analysed using GraphPad Prism 7.0 (GraphPad, USA) and Ki affinity values were determined from the obtained IC50 values using the method of Cheng and Prusoff.

Assay [2] deals with T2, human Adenosine A1 receptor (Homo sapiens, UniProt P30542).
T2 sequence (P30542 1-326): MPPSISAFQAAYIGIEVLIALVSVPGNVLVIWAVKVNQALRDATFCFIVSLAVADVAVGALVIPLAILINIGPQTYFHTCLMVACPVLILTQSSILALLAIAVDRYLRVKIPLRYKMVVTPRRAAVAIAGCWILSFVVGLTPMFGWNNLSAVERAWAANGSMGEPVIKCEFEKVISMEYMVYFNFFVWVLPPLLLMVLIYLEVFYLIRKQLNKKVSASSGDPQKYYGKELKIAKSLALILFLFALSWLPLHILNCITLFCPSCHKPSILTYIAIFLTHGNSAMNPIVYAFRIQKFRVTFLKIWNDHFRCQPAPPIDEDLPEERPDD
The assay can be described thus: Adenosine receptor TR-FRET binding assay (CA200645 displacement), A1. (In TR-FRET formats the signal depends on donor and acceptor labels being close together.)

Assay [3] deals with T3, human Adenosine A2a receptor (Homo sapiens, UniProt P29274).
T3 construct: expressed in transfected cells; host or cells: CHO cell membranes
The assay can be described thus: Adenosine receptor TR-FRET binding assay (CA200645 displacement), A2a. The conditions noted are these: 100 nM CA200645, CHO cell membranes, 2 hours at room temperature.

Assay [4] deals with T4, human Adenosine A2b receptor (Homo sapiens, UniProt P29275).
T4 construct: expressed in transfected cells; host or cells: CHO cell membranes
T4 sequence (P29275 1-332): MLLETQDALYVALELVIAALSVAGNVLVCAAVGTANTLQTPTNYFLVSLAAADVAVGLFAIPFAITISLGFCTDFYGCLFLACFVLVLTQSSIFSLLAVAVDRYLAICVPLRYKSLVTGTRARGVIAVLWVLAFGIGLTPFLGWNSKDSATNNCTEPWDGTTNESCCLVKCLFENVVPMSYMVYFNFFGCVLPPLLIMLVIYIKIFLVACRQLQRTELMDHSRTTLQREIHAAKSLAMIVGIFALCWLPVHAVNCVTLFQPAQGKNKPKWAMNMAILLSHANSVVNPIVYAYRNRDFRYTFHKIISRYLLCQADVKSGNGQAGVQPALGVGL
Description: Adenosine receptor TR-FRET binding assay (CA200645 displacement), A2b. The conditions noted are these: 30 nM CA200645, CHO cell membranes, 2 hours at room temperature.

T3 sequence (P29274 whole entry): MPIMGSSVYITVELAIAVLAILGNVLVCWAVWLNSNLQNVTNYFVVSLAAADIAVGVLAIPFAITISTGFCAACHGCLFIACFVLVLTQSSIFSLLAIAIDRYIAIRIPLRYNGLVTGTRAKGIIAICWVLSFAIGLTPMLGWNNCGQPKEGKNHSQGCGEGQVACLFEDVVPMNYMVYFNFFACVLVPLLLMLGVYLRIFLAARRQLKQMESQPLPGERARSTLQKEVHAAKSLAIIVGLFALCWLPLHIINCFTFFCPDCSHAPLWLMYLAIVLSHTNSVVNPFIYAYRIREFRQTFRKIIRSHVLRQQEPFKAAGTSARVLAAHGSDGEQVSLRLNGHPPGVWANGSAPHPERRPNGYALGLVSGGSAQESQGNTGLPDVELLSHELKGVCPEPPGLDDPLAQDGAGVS

In general, Ki refers to a dissociation constant, usually derived from enzyme kinetics or from competition with a known ligand. Higher therefore signals a looser hold on the target. As to `Cc1cc(-c2c(-c3cccc(C#N)c3)nn3ccc(C(=O)N4CCOCC4)nc23)cc(Cl)n1` [Example 5.7], the Ki in assay [1] is above 1000 nM; in assay [2], 135 nM; in assay [3], 14.8 nM; in assay [4], 10 nM.
For `Cc1cc(-c2c(-c3cccc(C#N)c3)nn3ccc(C(N)=O)nc23)cc(C)n1` [Example 5.8, 2-(3-Cyanophenyl)-3-(2,6-dimethyl-4-pyridyl)pyrazolo[1,5-a]pyrimidine-5-carboxamide], in that order: above 1000 nM, 418 nM, 5.7 nM and 41 nM.
For `Cc1cc(-c2c(-c3cccc(C#N)c3)nn3ccc(C(=O)NCC(C)(C)N)nc23)cc(Cl)n1` [Example 6.1, N-(2-Amino-2-methyl-propyl)-3-(2-chloro-6-methyl-4-pyridyl)-2-(3-cyanophenyl)pyrazolo[1,5-a]pyrimidine-5-carboxamide], in that order: above 1000 nM, 664 nM, 11.7 nM and 53 nM.
Consider `Cc1cc(-c2c(-c3cccc(C#N)c3)nn3ccc(C(=O)NCC4(O)CCC4)nc23)cc(Cl)n1` [Example 6.3, 3-(2-Chloro-6-methyl-4-pyridyl)-2-(3-cyanophenyl)-N-[(1-hydroxycyclobutyl)methyl]pyrazolo[1,5-a]pyrimidine-5-carboxamide], for which the Ki is above 1000 nM in assay [1], 127 nM in assay [2], 0.3 nM in assay [3] and 3 nM in assay [4].
`Cc1cc(-c2c(-c3cccc(C#N)c3)nn3ccc(C(=O)NC[C@@H](C)O)nc23)cc(Cl)n1` [Example 6.5, 3-(2-Chloro-6-methyl-4-pyridyl)-2-(3-cyanophenyl)-N-[(2R)-2-hydroxypropyl]pyrazolo[1,5-a]pyrimidine-5-carboxamide]: the Ki in assay [1] is above 1000 nM; in assay [2], 361 nM; in assay [3], 0.9 nM; in assay [4], 7 nM.
For `Cc1cc(-c2c(-c3cccc(C#N)c3)nn3ccc(C(=O)N[C@H](C)CO)nc23)cc(Cl)n1` [Example 6.6, 3-(2-Chloro-6-methyl-4-pyridyl)-2-(3-cyanophenyl)-N-[(1R)-2-hydroxy-1-methyl-ethyl]pyrazolo[1,5-a]pyrimidine-5-carboxamide], the Ki in assay [1] is above 1000 nM; in assay [2] it was 390 nM; in assay [3], 0.9 nM; in assay [4] it was 35 nM.
Take `Cc1cc(-c2c(-c3cccc(C#N)c3)nn3ccc(C(=O)NCC4(O)COC4)nc23)cc(Cl)n1` [Example 6.7, 3-(2-Chloro-6-methyl-4-pyridyl)-2-(3-cyanophenyl)-N-[(3-hydroxyoxetan-3-yl)methyl]pyrazolo[1,5-a]pyrimidine-5-carboxamide]: the Ki in assay [1] is above 1000 nM; in assay [2], 174 nM; in assay [3] it was 1.4 nM; in assay [4], 5 nM.
In the same order, the values of `Cc1cc(-c2c(-c3cccc(C#N)c3)nn3ccc(C(=O)NS(C)(=O)=O)nc23)cc(Cl)n1` [Example 6.8, 3-(2-Chloro-6-methyl-4-pyridyl)-2-(3-cyanophenyl)-N-methylsulfonyl-pyrazolo[1,5-a]pyrimidine-5-carboxamide] are 2550 nM, 522 nM, 8.3 nM and 39 nM.
`Cc1cc(-c2c(-c3cccc(C#N)c3)nn3ccc(C(=O)NCC4CC(O)C4)nc23)cc(Cl)n1` (stereo not shown) [Example 6.10, 3-(2-Chloro-6-methyl-4-pyridyl)-2-(3-cyanophenyl)-N-[(3-hydroxycyclobutyl)methyl]pyrazolo[1,5-a]pyrimidine-5-carboxamide]: the Ki in assay [1] is above 1000 nM; in assay [2] it was 581 nM; in assay [3], 2.5 nM; in assay [4] it was 24 nM.
On to `Cc1cc(-c2c(-c3cccc(C#N)c3)nn3ccc(C(=O)NC45CCC(N)(CC4)C5)nc23)cc(Cl)n1` [Example 6.12, N-(4-Aminonorbornan-1-yl)-3-(2-chloro-6-methyl-4-pyridyl)-2-(3-cyanophenyl)pyrazolo[1,5-a]pyrimidine-5-carboxamide], for which the Ki in assay [1] was above 1000 nM; in assay [2], 105 nM; in assay [3], 3.7 nM; in assay [4], 6 nM.
Consider `Cc1cc(-c2c(-c3cccc(C#N)c3)nn3ccc(C(=O)NC4CN(C)C4)nc23)cc(Cl)n1` [Example 6.16, 3-(2-Chloro-6-methyl-4-pyridyl)-2-(3-cyanophenyl)-N-(1-methylazetidin-3-yl)pyrazolo[1,5-a]pyrimidine-5-carboxamide], for which the Ki in assay [1] is above 1000 nM; in assay [2] it was 346 nM; in assay [3] it was 5.9 nM; in assay [4], 54 nM.
`Cc1cc(-c2c(-c3cccc(C#N)c3)nn3ccc(C(=O)N[C@H]4COC[C@H]4O)nc23)cc(Cl)n1` [Example 6.17, 3-(2-Chloro-6-methyl-4-pyridyl)-2-(3-cyanophenyl)-N-[(3S,4S)-4-hydroxytetrahydrofuran-3-yl]pyrazolo[1,5-a]pyrimidine-5-carboxamide]: the Ki in assay [1] was above 1000 nM; in assay [2], 110 nM; in assay [3], 0.5 nM; in assay [4], 3 nM.
For `Cc1cc(-c2c(-c3cccc(C#N)c3)nn3ccc(C(=O)NC45CC(N)(C4)C5)nc23)cc(Cl)n1` [Example 7.1, N-(3-Amino-1-bicyclo[1.1.1]pentanyl)-3-(2-chloro-6-methyl-4-pyridyl)-2-(3-cyanophenyl)pyrazolo[1,5-a]pyrimidine-5-carboxamide], the Ki in assay [1] is above 1000 nM; in assay [2], 245 nM; in assay [3] it was 2 nM; in assay [4], 17 nM.
As for `Cc1cc(-c2c(-c3cccc(C#N)c3)nn3ccc(C(=O)N[C@H]4CNC[C@@H]4O)nc23)cc(Cl)n1` [Example 7.5, 3-(2-Chloro-6-methyl-4-pyridyl)-2-(3-cyanophenyl)-N-[trans-(3S,4S)-4-hydroxypyrrolidin-3-yl]pyrazolo[1,5-a]pyrimidine-5-carboxamide], the inhibitory constant (Ki) was above 1000 nM in assay [1], 612 nM in assay [2], 5.5 nM in assay [3] and 5 nM in assay [4].
Turning to `Cc1cc(-c2c(-c3cccc(C#N)c3)nn3ccc(C(=O)NCC4(O)CCNC4)nc23)cc(Cl)n1` (stereo not shown) [Example 7.6, 3-(2-Chloro-6-methyl-4-pyridyl)-2-(3-cyanophenyl)-N-[(3-hydroxypyrrolidin-3-yl)methyl]pyrazolo[1,5-a]pyrimidine-5-carboxamide], the Ki in assay [1] is above 1000 nM; in assay [2], 672 nM; in assay [3], 6.8 nM; in assay [4] it was 13 nM.
For `Cc1cc(-c2c(-c3cccc(C#N)c3)nn3ccc(C(=O)NC4(C)CCNC4)nc23)cc(Cl)n1` (stereo not shown) [Example 7.8, 3-(2-Chloro-6-methyl-4-pyridyl)-2-(3-cyanophenyl)-N-(3-methylpyrrolidin-3-yl)pyrazolo[1,5-a]pyrimidine-5-carboxamide], the inhibition constant Ki in assay [1] is above 1000 nM; in assay [2] it was 160 nM; in assay [3] it was 2.4 nM; in assay [4], 10 nM.
As for `Cc1cc(-c2c(-c3cccc(C#N)c3)nn3ccc(C(=O)NCC4(N)CC(F)(F)C4)nc23)cc(Cl)n1` [Example 7.10, N-[(1-Amino-3,3-difluoro-cyclobutyl)methyl]-3-(2-chloro-6-methyl-4-pyridyl)-2-(3-cyanophenyl)pyrazolo[1,5-a]pyrimidine-5-carboxamide], the Ki in assay [1] is above 1000 nM; in assay [2], 181 nM; in assay [3], 4.3 nM; in assay [4], 19 nM.
As to `Cc1cc(-c2c(-c3cccc(C#N)c3)nn3ccc(C(=O)NCC4CNCCO4)nc23)cc(Cl)n1` (stereo not shown) [Example 7.11, 3-(2-Chloro-6-methyl-4-pyridyl)-2-(3-cyanophenyl)-N-(morpholin-2-ylmethyl)pyrazolo[1,5-a]pyrimidine-5-carboxamide], the Ki in assay [1] is above 1000 nM; in assay [2] it was 137 nM; in assay [3], 4.9 nM; in assay [4], 3 nM.
Turning to `Cc1cc(-c2c(-c3cccc(C#N)c3)nn3ccc(C(=O)N4CCNCC4)nc23)cc(Cl)n1` [Example 7.12, 3-[3-(2-Chloro-6-methyl-4-pyridyl)-5-(piperazine-1-carbonyl)pyrazolo[1,5-a]pyrimidin-2-yl]benzonitrile hydrochloride], the Ki is above 1000 nM in assay [1], 459 nM in assay [2], 44.3 nM in assay [3] and 20 nM in assay [4].

(Values after patent US20230203041A1, “ANTAGONISTS OF THE ADENOSINE A2A RECEPTOR” (AdoRx Therapeutics Limited, priority 2020, published 2023).)
